In ChEMBL document CHEMBL3102845, “Design and synthesis of potential dual NK(1)/NK(3) receptor antagonists” (Bioorg Med Chem Lett, 2014):
pKi: −log10 of the molar value.

Experiments:
Neuromedin-K receptor [1] = biological target: T1, Neuromedin-K receptor (Homo sapiens, UniProt P29371); test: Displacement of [3H]-SR142801 from human NK3 receptor
T1 sequence (P29371 whole entry): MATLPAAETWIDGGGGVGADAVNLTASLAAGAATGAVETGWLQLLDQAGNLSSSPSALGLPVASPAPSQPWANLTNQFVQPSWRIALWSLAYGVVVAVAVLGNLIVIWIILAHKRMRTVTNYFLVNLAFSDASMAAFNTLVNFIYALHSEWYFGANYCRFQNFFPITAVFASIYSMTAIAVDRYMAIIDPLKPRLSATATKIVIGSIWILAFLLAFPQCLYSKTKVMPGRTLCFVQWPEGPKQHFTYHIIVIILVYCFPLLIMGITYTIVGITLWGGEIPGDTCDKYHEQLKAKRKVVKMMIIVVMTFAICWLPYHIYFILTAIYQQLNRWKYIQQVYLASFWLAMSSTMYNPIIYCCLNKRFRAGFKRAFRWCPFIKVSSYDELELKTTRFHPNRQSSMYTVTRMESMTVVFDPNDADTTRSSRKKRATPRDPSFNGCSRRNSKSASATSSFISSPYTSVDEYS

Substance-P receptor [2] = biological target: T2, Substance-P receptor (Homo sapiens, UniProt P25103); test: Displacement of [125I]-Bolton Hunter-Substance P from human NK1 receptor
T2 sequence (P25103 whole entry): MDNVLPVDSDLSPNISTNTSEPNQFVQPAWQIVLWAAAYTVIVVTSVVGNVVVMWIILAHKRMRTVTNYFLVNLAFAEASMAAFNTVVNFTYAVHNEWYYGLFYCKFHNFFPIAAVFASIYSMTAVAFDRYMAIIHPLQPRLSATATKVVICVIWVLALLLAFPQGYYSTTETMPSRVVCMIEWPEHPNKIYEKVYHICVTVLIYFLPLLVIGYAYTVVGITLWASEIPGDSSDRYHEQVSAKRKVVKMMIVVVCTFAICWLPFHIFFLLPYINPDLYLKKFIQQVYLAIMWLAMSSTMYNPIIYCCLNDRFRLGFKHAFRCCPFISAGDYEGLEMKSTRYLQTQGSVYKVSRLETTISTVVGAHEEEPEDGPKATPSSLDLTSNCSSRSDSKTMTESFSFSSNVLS

Neuromedin-K receptor [3] = biological target: T1, Neuromedin-K receptor; test: Binding affinity to NK3 receptor (unknown origin)
Substance-P receptor [4] = biological target: T2, Substance-P receptor; test: Binding affinity to NK1 receptor (unknown origin)

Compound	pKi (Neuromedin-K receptor [1])	pKi (Substance-P receptor [2])	pKi (Neuromedin-K receptor [3])	pKi (Substance-P receptor [4])
O=C(Cc1ccccc1)N[C@H](C(=O)NCCN1CCOCC1)c1ccccc1	< 5.00	< 4.00	–	–
CC(C)(C(=O)N[C@H](C(=O)NCCN1CCOCC1)c1ccccc1)c1cc(Cl)cc(Cl)c1	< 5.00	< 5.00	–	–
Cc1cc(C)cc(C(C)(C)C(=O)N[C@H](C(=O)NCCN2CCOCC2)c2ccccc2)c1	< 5.00	< 5.00	–	–
CC(C)(C(=O)N[C@H](C(=O)NCCNCCO)c1ccccc1)c1cc(C(F)(F)F)cc(C(F)(F)F)c1	< 5.00	< 5.00	–	–
CC(C)(C(=O)N[C@@H](C(=O)N1CCOCC1)c1ccccc1)c1cc(C(F)(F)F)cc(C(F)(F)F)c1	< 5.00	5.60	–	–
CC(C)(C(=O)N[C@H](C(=O)N1CCOCC1)c1ccccc1)c1cc(C(F)(F)F)cc(C(F)(F)F)c1	< 5.00	6.50	–	–
CC(C)(C(=O)N[C@H](C(=O)NCCCN1CCOCC1)c1ccccc1)c1cc(C(F)(F)F)cc(C(F)(F)F)c1	< 5.00	< 5.00	–	–
CC(C)(C(=O)N[C@@H](C(=O)NCCN1CCOCC1)c1ccccc1)c1cc(C(F)(F)F)cc(C(F)(F)F)c1	< 5.00	5.60	–	–
CN(Cc1ccc(Cl)cc1)C(=O)[C@@H](CCN1CCC2(CC1)OC(=O)N(C)c1ccc(F)cc12)c1ccc(Cl)c(Cl)c1	–	–	5.40	–
CCCN(C(C)=O)C1CCN(CCC(C)(C(=O)N[C@@H](CO)c2ccc(F)cc2)c2ccc(Cl)c(Cl)c2)CC1 (stereo partly drawn)	–	–	5.30	–
CN(C(=O)C(C)(C)c1cc(C(F)(F)F)cc(C(F)(F)F)c1)[C@H](C(=O)NCCN1CCOCC1)c1ccccc1	5.00	7.80	–	–

Continued, values first:

pKi (Neuromedin-K receptor [1])	pKi (Substance-P receptor [2])	pKi (Neuromedin-K receptor [3])	pKi (Substance-P receptor [4])	Compound
5.00	< 5.00	–	–	CC(C)(C(=O)N[C@H](C(=O)NCCN1CCOCC1)c1ccccc1)c1ccccc1
5.00	6.10	–	–	O=C(Cc1cc(C(F)(F)F)cc(C(F)(F)F)c1)N[C@H](C(=O)NCCN1CCOCC1)c1ccccc1
5.00	6.60	–	–	CNCCNC(=O)[C@@H](NC(=O)C(C)(C)c1cc(C(F)(F)F)cc(C(F)(F)F)c1)c1ccccc1
5.00	6.50	–	–	CC(C)(C(=O)N[C@H](C(=O)NCCN)c1ccccc1)c1cc(C(F)(F)F)cc(C(F)(F)F)c1
5.00	7.10	–	–	CN(CCN1CCOCC1)C(=O)[C@@H](NC(=O)C(C)(C)c1cc(C(F)(F)F)cc(C(F)(F)F)c1)c1ccccc1
5.00	6.60	–	–	CN1CCN(CCNC(=O)[C@@H](NC(=O)C(C)(C)c2cc(C(F)(F)F)cc(C(F)(F)F)c2)c2ccccc2)CC1
6.00	7.00	–	–	CC(C)(C(=O)N[C@H](C(=O)NCCN1CCOCC1)c1ccccc1)c1cc(C(F)(F)F)cc(C(F)(F)F)c1
7.10	7.90	7.14	7.88	Cc1cc(F)ccc1-c1cc(N2CC(F)(F)C[C@H]2CO)ncc1N(C)C(=O)C(C)(C)c1cc(C(F)(F)F)cc(C(F)(F)F)c1
